# Experimental data reported in patent US11491192B2, “Treatment and prevention of pathogenic bacterial overgrowth using butyrate-producing bacteria” (THE CLEVELAND CLINIC FOUNDATION, priority 2018, dated 2022).
# Tests used:
# [1] = system: sodium-coupled butyrate transporter, butyrate receptor, tight junction proteins and NHE3; conditions: supplementation during broad spectrum antibiotic treatment in mice; Cresci et al. 2013; cited from earlier work
# F. prausnitzii = experiment: Brucella broth dilution MIC of common antibiotics; assay type: cell-based, Faecalibacterium prausnitzii; conditions: unit assumed
# Method: This strain was chosen because it was isolated from human feces, and based on its ability to hydrolyze PS, yield butyrate, and utilize lactate. Belenguer et al., Applied Environmental Microbiology, 72:3593-3599 (2006) Bacteria was grown in conditions and medium as recommended by ATCC, briefly at 37° C. in anaerobic gas biological mix of 80% nitrogen, 10% carbon dioxide, 10% hydrogen, ATCC pre-reduced chopped meat broth (ATCC 1703). Overnight culture of FP was lyophilized on […] system and reconstituted in pre-reduced sterile phosphate buffered saline (PBS) just prior to treatment. Brucella broth dilution MIC of common antibiotics for FP and CD strains were determined using standard methods for susceptibility testing of anaerobic bacteria (Table 1).
# C. difficile = experiment: Brucella broth dilution MIC of common antibiotics; assay type: cell-based, Clostridium difficile; conditions: unit assumed
# [2] = Brucella broth dilution, FP strain used in this study (ATCC 27766)
# [3] = Brucella broth dilution, CD strain used in this study (VA17)
Compound,F. prausnitzii MIC (F. prausnitzii; [2]) [µg/mL],C. difficile MIC (C. difficile; [3]) [µg/mL],other results
CCCC(=O)OCC(COC(=O)CCC)OC(=O)CCC [tributyrin],–,–,"intestinal losses of sodium-coupled butyrate transporter, butyrate receptor, tight junction proteins and NHE3 [1]: protects against intestinal losses"
CO[C@@]1(NC(=O)Cc2cccs2)C(=O)N2C(C(=O)O)=C(COC(N)=O)CS[C@@H]21 [Cefoxitin],< 2,250,–
Piperacillin/Tazaba,8,15.6,–
CN[C@H](CC(C)C)C(=O)N[C@H]1C(=O)N[C@@H](CC(N)=O)C(=O)N[C@H]2C(=O)N[C@H]3C(=O)N[C@H](C(=O)N[C@H](C(=O)O)c4cc(O)cc(O)c4-c4cc3ccc4O)[C@H](O)c3ccc(c(Cl)c3)Oc3cc2cc(c3O[C@@H]2O[C@H](CO)[C@@H](O)[C@H](O)[C@H]2O[C@H]2C[C@](C)(N)[C@H](O)[C@H](C)O2)Oc2ccc(cc2Cl)[C@H]1O [Vancomycin],–,–,F. prausnitzii MIC (F. prausnitzii): < 2 µg/mL; C. difficile MIC (C. difficile): < 2 µg/mL
CCC[C@@H]1C[C@@H](C(=O)N[C@@H]([C@H]2O[C@H](SC)[C@H](O)[C@@H](O)[C@H]2O)[C@H](C)Cl)N(C)C1 [Clindamycin],–,500,–
Cc1ncc([N+](=O)[O-])n1CCO [Metronidazole],< 2,< 2,–
